The record followed here is PMC8659243, “Design, Synthesis and Tumour-Selective Toxicity of Novel 1-[3-{3,5-Bis(benzylidene)-4-oxo-1-piperidino}-3-oxopropyl]-4-piperidone Oximes and Related Quaternary Ammonium Salts” (Molecules, 2021).

For series [1], the system named is Ca9-22, HSC-2 and HSC-4 cells. The series is described as follows: Average over Ca9-22, HSC-2 and HSC-4 neoplastic cells. In kind it is cell-based, human. The settings on record: for CC50: Homo sapiens, average of Ca9-22, HSC-2 and HSC-4, read-out: Average CC50; for Average SI: average of SI for Ca9-22, HSC-2 and HSC-4. Here is the method: In order to assess whether the compounds in series 3 and 4 are more toxic to neoplasms than non-malignant cells, selective index (SI) figures were calculated. In the in vivo situation, a tumour is surrounded by a number of non-malignant cells.
In order to identify the most promising lead compounds in terms of both cytotoxic potencies and favourable SI values, potency–selectivity expression (PSE) values were computed. […] Outstanding results may be noted for four compounds that have PSE values in excess of 100,000 namely 3d, 4c–e. […] However, the relative SI/PSE distribution patterns between series 3 and 4 (from a to h) are nearly superimposable with each other (Figure 3). […] It has been reported that 3,5-bis(3-iodo-5-methoxy-4-propoxybenzylidene)-N-acetylpiperidin-4-one inhibited tubulin and destabilization of microtubules, while 3,5-bis(3,4,5-trimethoxybenzylidene)-N-benzoylpiperidin-4-one destabilizes the microtubules. Thus, it remained to investigate whether compound 4d acts as an inhibitor of the microtubule.
(§1) A literature procedure was followed when the compounds in series 3 and 4 were evaluated against three human oral squamous cell carcinoma cell lines Ca9-22 (RCB-1976), HSC-2 (RCB1945), HSC-4 (RCB1902) (purchased from RIKEN Cell Bank, Tukuba, Japan) and three human normal oral cells, gingival fibroblast (HGF), periodontal ligament fibroblast (HPLF) and pulp cells (HPC) (established according to the guideline of the intramural ethic committee, A0808) except the duration of incubation was increased from 24 h to 48 h. In brief, various concentrations of the compounds were added to the DMEM media, which was supplemented by 10% heat-inactivated fetal bovine serum. Incubation was undertaken at 37 °C. At the completion of the experiment, cell viability was determined by the MTT method.

In series [2] the test system is HSC-2 cells. Nature of the series: Cytotoxicity against HSC-2 cells, MTT method, 48 h. In kind it is cell-based, human. The settings on record: for CC50: Homo sapiens, HSC-2, concentration required to kill 50% of the cells, 48 h, MTT; for SI HSC-2: average CC50 towards HGF, HPLF, HPC divided by CC50 against HSC-2. How it is done: as §1
Background: Tetrazolium assays rely on reduction of a dye to a coloured formazan, in cell work by metabolically active cells.

Series [3] in a line: Cytotoxicity against non-malignant HPC cells, MTT method, 48 h. In kind it is cell-based. The note with it: human, pulp cells (HPC). How it is done:
as §1

The nature of series [4]: Cytotoxicity against non-malignant HPLF cells, MTT method, 48 h. In kind it is cell-based. The note with it: human, periodontal ligament fibroblasts (HPLF). Here is the method:
as §1

For series [5], the system named is HSC-4 cells. The series is described as follows: Cytotoxicity against HSC-4 cells, MTT method, 48 h. In kind it is cell-based, human. The settings on record: for CC50: Homo sapiens, HSC-4, concentration required to kill 50% of the cells, 48 h, MTT, read-out: CC50 HSC-4; for SI HSC-4: average CC50 towards HGF, HPLF, HPC divided by CC50 against HSC-4. How it is done:
as §1

Series [6] in a line: Cytotoxicity against non-malignant HGF cells, MTT method, 48 h. In kind it is cell-based. The note with it: human, gingival fibroblasts (HGF). How it is done:
as §1

The nature of series [7]: Average over HGF, HPLF and HPC non-malignant cells. The settings on record: human, HPLF and HPC non-malignant cells (average of the three). In kind it is cell-based. How it is done: as §1
The test system of series [8] is Ca9-22 cells. Nature of the series: Cytotoxicity against Ca9-22 cells, MTT method, 48 h. In kind it is cell-based, human. The settings on record: for CC50: Homo sapiens, Ca9-22, concentration required to kill 50% of the cells, 48 h, MTT, read-out: CC50 Ca9-22; for SI Ca9-22: average CC50 towards HGF, HPLF, HPC divided by CC50 against Ca9-22. How it is done:
as §1

Series [9] concerns CEM T-lymphoblastic leukemia cells. The series is described as follows: Cytotoxicity against CEM cells, MTT method, 24 h. In kind it is cell-based. The settings on record: Homo sapiens, CCRF-CEM, concentration required to inhibit cell growth by 50%. Here is the method:
The method used for the evaluation of various compounds against human CEM cells has been reported previously. In brief, cells were grown in RPMI-1640 medium supplemented with 10% heat-inactivated fetal bovine serum. Different concentrations of compounds were added to the media, and after 24 h incubation, cytotoxicity was measured by the MTT method.

Turning to `O=C1/C(=C/c2ccc(O)cc2)CN(C(=O)CCN2CCC(=NO)CC2)C/C1=C\c1ccc(O)cc1` [Compound 3i, (3~{E},5~{E})-3,5-bis[(4-hydroxyphenyl)methylene]-1-[3-(4-hydroximino-1-piperidyl)propanoyl]piperidin-4-one], the cytotoxic concentration (CC50) came out at 17900 nM in series [1], 18000 ± 2060 nM in series [2], 19300 ± 1610 nM in series [5] and 16500 ± 2350 nM in [8]. In addition, the “Average SI” value in [1] turned out to be 4.71. The “SI HSC-2” value in series [2] was determined as 4.68. The CC50 at 48 h in series [3] was determined as 99.3 ± 1.16 µM; in series [4] it was 88.3 ± 4.56 µM; in series [6], 64.9 ± 5.66 µM; in [7] it was 84.2 µM. Besides, the “SI HSC-4” value in series [5] was found to be 4.36. Besides, the “SI Ca9-22” value in [8] amounted to 5.10. In series [9], the concentration for half-maximal inhibition (IC50) turned out to be 11.1 ± 1.01 µM.
On to `C[N+]1(CCC(=O)N2C/C(=C\c3ccc([N+](=O)[O-])cc3)C(=O)/C(=C/c3ccc([N+](=O)[O-])cc3)C2)CCC(=NO)CC1` (stereo not shown) [Compound 4e, (3~{E},5~{E})-1-[3-(4-hydroximino-1-piperidyl)propanoyl]-3,5-bis[(4-nitrophenyl)methylene]piperidin-4-one methiodide], for which the CC50 in [1] is 40 nM; in [2] it was 50 ± 10 nM; in [5], 60 ± 10 nM; in series [8], 20 nM. Also, the “Average SI” value in series [1] was 60.0. The “SI HSC-2” value in series [2] came out at 41.4. In addition, the half-maximal cytotoxic concentration (CC50) at 48 h in [3] is 2.46 ± 1.23 µM; in series [4], 2.59 ± 0.27 µM; in series [6], 1.15 ± 0.35 µM; in [7], 2.07 µM. Moreover, the “SI HSC-4” value in series [5] was 34.5. In addition, the “SI Ca9-22” value in series [8] worked out at 104. In [9], this compound yielded a concentration for half-maximal inhibition (IC50) of 0.87 ± 0.02 µM.
With `Cc1ccc(/C=C2\CN(C(=O)CC[N+]3(C)CCC(=NO)CC3)C/C(=C\c3ccc(C)cc3)C2=O)cc1` (stereo not shown) [Compound 4f, (3~{E},5~{E})-3,5-bis[(4-methylphenyl)methylene]-1-[3-(4-hydroximino-1-piperidyl)propanoyl]piperidin-4-one methiodide], the CC50 came out at 350 nM in series [1], 460 ± 100 nM in series [2], 400 ± 230 nM in series [5] and 180 ± 20 nM in series [8]. Further, in series [1], the “Average SI” value amounted to 32.6. Further, the “SI HSC-2” value in series [2] is 20.8. In addition, the half-maximal cytotoxic concentration (CC50) at 48 h in [3] was 15.2 ± 1.9 µM; in series [4], 8.37 ± 0.81 µM; in series [6], 5.12 ± 0.24 µM; in series [7], 9.56 µM. In addition, the “SI HSC-4” value in [5] was determined as 23.9. Besides, the “SI Ca9-22” value in series [8] came to 53.1. The compound also gave an IC50 in [9] of 4.18 ± 0.65 µM.
As for `COc1ccc(/C=C2\CN(C(=O)CC[N+]3(C)CCC(=NO)CC3)C/C(=C\c3ccc(OC)cc3)C2=O)cc1` (stereo not shown) [Compound 4g, (3~{E},5~{E})-3,5-bis[(4-methoxyphenyl)methylene]-1-[3-(4-hydroximino-1-piperidyl)propanoyl]piperidin-4-one methiodide], the CC50 turned out to be 550 nM in series [1], 680 ± 40 nM in series [2], 660 ± 50 nM in series [5] and 310 ± 170 nM in series [8]. The “Average SI” value in series [1] is listed as 26.3. Moreover, the “SI HSC-2” value in series [2] came out at 18.7. The CC50 at 48 h was determined as 15.6 ± 3.16 µM in series [3], 16.2 ± 4.05 µM in series [4], 6.3 ± 0.27 µM in [6] and 12.7 µM in series [7]. Also, the “SI HSC-4” value in [5] amounted to 19.2. In series [8], the “SI Ca9-22” value came out at 41.0. Besides, the concentration for half-maximal inhibition (IC50) in series [9] turned out to be 13 ± 0.95 µM.
In the case of `COc1cccc2c1C(=O)c1c(O)c3c(c(O)c1C2=O)C[C@@](O)(C(=O)CO)C[C@@H]3O[C@H]1C[C@H](N)[C@H](O)[C@H](C)O1` [Doxorubicin, reference compound], the 50% cytotoxic concentration (CC50) in series [1] was 240 nM; in series [2], 110 ± 10 nM; in series [5], 150 ± 50 nM; in series [8], 470 ± 120 nM. Moreover, the “Average SI” value in [1] was found to be 43.6. The “SI HSC-2” value in series [2] was found to be 66.5. Besides, the 50% cytotoxic concentration (CC50) at 48 h worked out at 8.77 ± 2.14 µM in series [3], 9.73 ± 0.47 µM in series [4], 3.44 ± 0.53 µM in series [6] and 7.31 µM in series [7]. In addition, the “SI HSC-4” value in series [5] is 48.7. The “SI Ca9-22” value in series [8] is reported as 15.6.

A word on the CC50: it is the concentration that lowers cell viability or growth by half. As a reminder, the IC50 is the concentration that inhibits the measured activity by half.
